Where only a bound is given, the exact number is not on record here.

Data on 20 compounds can be found in ChEMBL document CHEMBL1148724, “Design, synthesis, and biological activity of 5,10-dihydro-dibenzo[b,e][1,4]diazepin-11-one-based potent and selective Chk-1 inhibitors” (J Med Chem, 2007).

This assay addresses T1, Serine/threonine-protein kinase Chk1 (Homo sapiens, UniProt O14757).
T1 sequence (O14757 whole entry): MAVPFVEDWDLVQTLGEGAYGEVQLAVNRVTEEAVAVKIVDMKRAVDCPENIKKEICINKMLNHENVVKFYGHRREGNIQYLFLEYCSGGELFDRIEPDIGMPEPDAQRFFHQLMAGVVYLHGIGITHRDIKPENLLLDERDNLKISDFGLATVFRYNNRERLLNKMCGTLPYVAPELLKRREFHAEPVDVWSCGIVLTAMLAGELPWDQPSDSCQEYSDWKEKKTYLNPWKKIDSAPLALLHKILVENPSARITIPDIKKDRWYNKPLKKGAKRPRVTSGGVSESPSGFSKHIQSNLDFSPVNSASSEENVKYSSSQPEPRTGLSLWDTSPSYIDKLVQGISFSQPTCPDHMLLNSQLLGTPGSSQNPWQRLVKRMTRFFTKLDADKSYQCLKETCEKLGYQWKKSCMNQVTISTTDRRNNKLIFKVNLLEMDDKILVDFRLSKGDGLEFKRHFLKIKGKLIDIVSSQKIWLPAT
Briefly: Inhibition of human recombinant Chk1.
Usually IC50 stands for the point on the concentration scale where inhibition reaches its midpoint. `COc1cc(-c2ccc3c(c2)Nc2ccccc2NC3=O)ccc1C(N)=O`: the IC50 was 88 nM.
For the compound `N#Cc1ccc(-c2ccc3c(c2)Nc2ccccc2NC3=O)cc1`, the IC50 is greater than 10000 nM.
Regarding `CCOc1cccc(-c2ccc3c(c2)Nc2ccccc2NC3=O)c1`, the IC50 is greater than 10000 nM.
As to `COc1cccc(-c2ccc3c(c2)Nc2ccccc2NC3=O)c1`, the IC50 came out at 500 nM.
As for `COc1ccccc1-c1ccc2c(c1)Nc1ccccc1NC2=O`, the IC50 worked out at 3600 nM.
In the case of `COc1cc(-c2ccc3c(c2)Nc2ccccc2NC3=O)ccc1Cl`, the IC50 was found to be 91 nM.
With `O=C1Nc2ccccc2Nc2cc(-c3ccccc3)ccc21`, the IC50 is greater than 10000 nM.
Take `CC(=O)c1cccc(-c2ccc3c(c2)Nc2ccccc2NC3=O)c1`: the IC50 was found to be 2100 nM.
The value for `O=C1Nc2ccccc2C(O)c2ccccc21` (stereo not given) was greater than 50000 nM.
As to `COc1cc(-c2ccc3c(c2)Nc2ccccc2NC3=O)ccc1C#N`, the IC50 is 33 nM.
Regarding `COc1cc(-c2ccc3c(c2)C(=O)Nc2ccccc2N3)ccc1O`, the IC50 is greater than 10000 nM.
The value for `N#Cc1cccc(-c2ccc3c(c2)Nc2ccccc2NC3=O)c1` was 970 nM; that for `CC(=O)c1ccc(-c2ccc3c(c2)Nc2ccccc2NC3=O)cc1` was greater than 10000 nM; that for `COC(=O)c1ccc(-c2ccc3c(c2)Nc2ccccc2NC3=O)cc1OC` was 53 nM.
As for `COc1cc(-c2ccc3c(c2)Nc2ccccc2NC3=O)ccc1O`, the IC50 came to 82 nM.
The value for `O=c1[nH]c2ccccc2c(=O)c2ccccc12` was greater than 50000 nM.
For the compound `COc1cc(-c2ccc3c(c2)Nc2ccccc2NC3=O)ccc1C(C)=O`, the IC50 came out at 48 nM.
As to `O=C1Nc2ccccc2S(=O)(=O)c2ccccc21`, the half-inhibitory concentration (IC50) was greater than 50000 nM.
As for `CC(=O)c1ccccc1-c1ccc2c(c1)Nc1ccccc1NC2=O`, the figure is 8000 nM; as for `COc1cc(-c2ccc3c(c2)Nc2ccccc2NC3=O)ccc1[N+](=O)[O-]`, 10 nM.
